Like-named read-outs stand apart in the source and are kept apart here.
Experiments:
MCL-1 = MCL-1 (Homo sapiens (Human), UniProt Q07820); assay: Cell free Mcl-1:Bim affinity assay (fluorescence polarization competition); assay type: binding; details: 15 nM MCL-1, 5 nM FITC-Bim, 1 hour at room temperature, read-out: BIM_Ki
Outline: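 Compounds competed with FITC-labelled Bim peptide (5 nM) for MCL-1 (15 nM) in HEPES/NaCl buffer with 1% DMSO, 1 h at room temperature. Fluorescence polarization (535 nm emission) gave % inhibition versus DMSO and positive controls; IC50 from 10-point curves, converted to Ki by the Nikolovska-Coleska equation.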

H929 cells = assay: Cell viability assay (H929 10 FBS); assay type: cell-based; details: Homo sapiens, NCI-H929, 24 hours, read-out: H929_10FBS IC50
Outline: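 H929 cells, 4000/well, in RPMI 1640 with 10% FBS, sodium pyruvate, HEPES and glucose were exposed to compound 24 h at 37 °C. Viability read as luminescence after 30-60 min at RT with CellTiter-Glo or ATPlite 1 Step.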

Chain of MCL-1 (Q07820 whole entry): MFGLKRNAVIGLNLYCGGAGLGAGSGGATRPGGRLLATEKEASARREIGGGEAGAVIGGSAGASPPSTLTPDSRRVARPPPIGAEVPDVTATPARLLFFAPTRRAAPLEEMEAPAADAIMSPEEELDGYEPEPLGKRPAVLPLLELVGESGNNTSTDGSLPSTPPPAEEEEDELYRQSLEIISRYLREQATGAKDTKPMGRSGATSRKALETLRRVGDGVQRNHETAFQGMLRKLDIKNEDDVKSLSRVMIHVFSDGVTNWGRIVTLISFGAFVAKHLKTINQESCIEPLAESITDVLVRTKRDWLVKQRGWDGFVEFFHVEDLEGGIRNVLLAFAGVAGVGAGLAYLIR

| SMILES | Ki (MCL-1; class symbols) | IC50 (H929 cells) | Ki (MCL-1; numeric values) |
| --- | --- | --- | --- |
| CN1C/C=C/[C@@H](O)[C@@H]2CC[C@H]2CN2C[C@@]3(CCCc4cc(Cl)ccc43)COc3ccc(cc32)S(=O)(=O)NC(=O)C12CCC2 [Example 138, (3R,6R,7R,8E,22S)-6′-Chloro-7-hydroxy-11-methyl-12,12-(1,3-propylene)-15,15-dioxo-spiro[20-oxa-15-thia-1,11,14-triazatetracyclo[14.7.2.03,6.019,24]pentacosa[8,16(25),17,19(24)]tetraene-22,1′-tetralin]-13-one] | 1 to 100 nM | < 1000 nM |  |
| CO[C@@H]1/C=C/C[C@H](C)[C@@H](C)C(=O)NS(=O)(=O)c2ccc3c(c2)N(C[C@@H]2CC[C@H]21)C[C@@]1(CCCc2cc(Cl)ccc21)CO3 [Example 78, (3R,6R,7R,8E,1S,12R,22S)-6′-Chloro-7-methoxy-11,12-dimethyl-15,15-dioxo-spiro[20-oxa-15-thia-1,14-diazatetracyclo[14.7.2.03,6.019,24]pentacosa-8,16,18,24-tetraene-22,1′-tetralin]-13-one] | 1 to 100 nM | > 1000 nM |  |
| CO[C@H]1/C=C/C[C@@H](C)CC(=O)NS(=O)(=O)c2ccc3c(c2)N(C[C@@H]2CC[C@H]21)C[C@@]1(CCCc2cc(Cl)ccc21)CO3 [Example 84, (3R,6R,7S,8E,11R,22S)-6′-Chloro-7-methoxy-11-methyl-15,15-dioxo-spiro[20-oxa-15-thia-1,14-diazatetracyclo[14.7.2.03,6.019,24]pentacosa-8,16(25),17,19(24)-tetraene-22,1′-tetralin]-13-one] | 1 to 100 nM | > 1000 nM |  |
| CC(=O)NS(=O)(=O)c1ccc2c(c1)N(CC1C[C@@H](C)O[C@@H](C)C1)CC1(CCCc3cc(Cl)ccc31)CO2 (mixture of isomers) [Example 8, N-[6′-Chloro-5-[[rac-(2S,6R)-2,6-dimethyltetrahydropyran-4-yl]methyl]spiro[2,4-dihydro-1,5-benzoxazepine-3,1′-tetralin]-7-yl]sulfonylacetamide] |  | > 1000 nM | 424 nM |

Continued, values first:

| Ki (MCL-1; class symbols) | IC50 (H929 cells) | Ki (MCL-1; numeric values) | SMILES |
| --- | --- | --- | --- |
| < 1 nM | < 500 nM |  | CC1(C)OC/C=C/[C@H](OC(=O)NC2CCOCC2)[C@@H]2CC[C@H]2CN2C[C@@]3(CCOc4cc(Cl)ccc43)COc3ccc(cc32)S(=O)(=O)NC1=O [Example 305, [(3R,6R,7S,8E,22S)-7′-Chloro-12,12-dimethyl-13,15,15-trioxo-spiro[11,20-dioxa-15-thia-1,14-diazatetracyclo[14.7.2.03,6.019,24]pentacosa-8,16,18,24-tetraene-22,4′-chromane]-7-yl] N-tetrahydropyran-4-yl-carbamate] |
| < 1 nM | < 500 nM |  | CCN1C/C=C/[C@H](OC(=O)N(C)C)[C@@H]2CC[C@H]2CN2C[C@@]3(CCCc4cc(Cl)ccc43)COc3ccc(cc32)S(=O)(=O)NC(=O)C1(C)C [Example 210, [(3R,6R,7S,8E,22S)-6′-Chloro-11-ethyl-12,12-dimethyl-13,15,15-trioxo-spiro[20-oxa-15-thia-1,11,14-triazatetracyclo[14.7.2.03,6.019,24]pentacosa-8,16,18,24-tetraene-22,1′-tetralin]-7-yl] N,N-dimethylcarbamate] |
| < 1 nM | < 500 nM |  | COCCNC(=O)O[C@H]1/C=C/COC(C)(C)C(=O)NS(=O)(=O)c2ccc3c(c2)N(C[C@@H]2CC[C@H]21)C[C@@]1(CCCc2cc(Cl)ccc21)CO3 [Example 191, [(3R,6R,7S,8E,22S)-6′-Chloro-12,12-dimethyl-13,15,15-trioxo-spiro[11,20-dioxa-15-thia-1,14-diazatetracyclo[14.7.2.03,6.019,24]pentacosa-8,16,18,24-tetraene-22,1′-tetralin]-7-yl] N-(2-methoxyethyl)carbamate] |
